Assay results as given in patent publication US9434763B2, “Derivatives of pyridinone as inhibitors for tissue transglutaminase” (ZEDIRA GMBH, priority 2012, dated 2016).

How the values were obtained:
Assay type in all cases: biochemical
[1] = biological target: T1, tissue transglutaminase (TG2) (Homo sapiens, UniProt P21980); assay: Comparative transglutaminase selectivity assay with casein and dansylcadaverine as substrates (kit T036): TG2; conditions: casein as substrate (apparent IC50)
T1 construct: purchased Zedira T036 (kit)
T1 sequence (P21980 1-687): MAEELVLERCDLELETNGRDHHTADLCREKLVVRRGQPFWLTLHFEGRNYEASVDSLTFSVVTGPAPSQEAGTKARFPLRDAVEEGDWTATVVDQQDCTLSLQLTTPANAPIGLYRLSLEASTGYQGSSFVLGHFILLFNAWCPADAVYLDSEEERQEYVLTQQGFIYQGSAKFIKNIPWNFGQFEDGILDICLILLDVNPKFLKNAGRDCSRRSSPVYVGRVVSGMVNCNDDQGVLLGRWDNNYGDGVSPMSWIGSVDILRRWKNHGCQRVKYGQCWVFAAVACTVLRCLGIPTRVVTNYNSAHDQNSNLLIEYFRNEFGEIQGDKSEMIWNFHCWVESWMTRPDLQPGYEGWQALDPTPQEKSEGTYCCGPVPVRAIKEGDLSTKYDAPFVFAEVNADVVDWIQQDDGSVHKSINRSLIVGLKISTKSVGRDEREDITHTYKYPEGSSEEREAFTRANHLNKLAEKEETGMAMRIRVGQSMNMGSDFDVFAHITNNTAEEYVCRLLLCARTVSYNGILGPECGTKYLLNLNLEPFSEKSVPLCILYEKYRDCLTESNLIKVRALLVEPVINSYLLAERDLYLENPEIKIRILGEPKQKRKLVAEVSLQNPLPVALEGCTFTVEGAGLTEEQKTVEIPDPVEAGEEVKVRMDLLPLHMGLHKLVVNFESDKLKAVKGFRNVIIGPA
Text: (§1) The comparative determination of different transglutaminases to determine the selectivity was made with casein and dansylcadaverine as substrates. Therefore, the kit T036 (Zedira, Darmstadt; Refs: Lorand et al, Anal Biochem, 1971, 44:221-31) as well as transglutaminase products T009 (transglutaminase 1), T012 (transglutaminase 3), T021 (transglutaminase 6) and T027 (plasma transglutaminase, factor XIII) are used. Therefore, two different IC50 values for the compounds are given.
(§2) The evaluation of the resulting enzyme activity is done using the slope of the straight line obtained by the increase in fluorescence.
(§3) To determine the non-inhibited enzyme activity, DMSO instead of inhibitor stock solution is used. IC50 values are determined by plotting the resulting enzyme activity against the logarithm of the inhibitor concentration. IC50 is defined as the concentration of inhibitor resulting in 50% of enzyme activity.
(§4) It should be noted that it was measured here against casein as substrate, which is why other apparent inhibition values (IC50 value) result.

TG6 (transglutaminase 6) = biological target: T2, TG6 (transglutaminase 6) (Homo sapiens, UniProt O95932); assay: Comparative transglutaminase selectivity assay with casein and dansylcadaverine as substrates: TG6; conditions: casein as substrate
T2 construct: purchased Zedira T021
T2 sequence (O95932 1-706): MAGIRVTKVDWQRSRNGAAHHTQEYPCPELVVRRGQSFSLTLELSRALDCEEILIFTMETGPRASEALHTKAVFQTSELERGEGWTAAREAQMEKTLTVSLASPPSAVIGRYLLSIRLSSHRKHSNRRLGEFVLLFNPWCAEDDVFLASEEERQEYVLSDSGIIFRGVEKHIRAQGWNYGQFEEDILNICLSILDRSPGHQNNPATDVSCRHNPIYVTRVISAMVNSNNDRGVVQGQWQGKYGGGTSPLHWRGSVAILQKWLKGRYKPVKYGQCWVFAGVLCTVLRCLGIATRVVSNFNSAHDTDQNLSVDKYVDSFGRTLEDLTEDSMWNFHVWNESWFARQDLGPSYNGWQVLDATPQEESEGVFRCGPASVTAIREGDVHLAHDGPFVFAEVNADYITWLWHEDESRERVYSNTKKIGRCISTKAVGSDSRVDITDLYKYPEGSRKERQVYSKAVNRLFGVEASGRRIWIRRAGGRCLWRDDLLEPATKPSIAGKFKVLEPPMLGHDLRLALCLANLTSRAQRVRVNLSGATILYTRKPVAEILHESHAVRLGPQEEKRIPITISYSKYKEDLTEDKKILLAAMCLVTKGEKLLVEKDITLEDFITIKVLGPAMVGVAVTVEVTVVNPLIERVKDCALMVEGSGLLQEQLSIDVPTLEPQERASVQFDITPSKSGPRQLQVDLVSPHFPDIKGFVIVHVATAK
Text: as §1, §2, §3, §4

[2] = biological target: T3, FXIII (plasma transglutaminase, factor XIII) (Homo sapiens, UniProt P00488); assay: Comparative transglutaminase selectivity assay with casein and dansylcadaverine as substrates: FXIII; conditions: casein as substrate
T3 construct: purchased Zedira T027
T3 sequence (P00488 1-732): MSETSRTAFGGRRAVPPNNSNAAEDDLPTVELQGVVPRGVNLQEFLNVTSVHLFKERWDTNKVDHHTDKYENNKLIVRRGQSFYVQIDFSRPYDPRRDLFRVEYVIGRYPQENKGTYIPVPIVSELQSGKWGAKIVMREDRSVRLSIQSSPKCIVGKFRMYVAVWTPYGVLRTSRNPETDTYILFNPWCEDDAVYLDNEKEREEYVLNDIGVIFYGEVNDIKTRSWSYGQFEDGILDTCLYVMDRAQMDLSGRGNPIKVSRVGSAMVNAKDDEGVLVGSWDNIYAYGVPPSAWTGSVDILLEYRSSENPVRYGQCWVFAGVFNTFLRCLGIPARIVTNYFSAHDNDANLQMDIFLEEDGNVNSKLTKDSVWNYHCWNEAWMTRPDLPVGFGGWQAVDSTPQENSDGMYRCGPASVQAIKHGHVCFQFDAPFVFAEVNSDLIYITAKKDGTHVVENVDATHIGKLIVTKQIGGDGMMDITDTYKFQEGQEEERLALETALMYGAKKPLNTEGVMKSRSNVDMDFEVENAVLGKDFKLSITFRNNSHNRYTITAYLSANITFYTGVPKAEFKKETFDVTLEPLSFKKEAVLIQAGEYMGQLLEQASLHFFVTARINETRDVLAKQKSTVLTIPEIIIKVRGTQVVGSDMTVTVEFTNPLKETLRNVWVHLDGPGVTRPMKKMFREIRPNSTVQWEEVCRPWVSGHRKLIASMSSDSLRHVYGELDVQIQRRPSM
Text: as §1, §2, §3, §4

SMILES	IC50 [1] [µM]	IC50 (TG6 (transglutaminase 6)) [µM]	IC50 [2] [µM]
CCOC(=O)/C=C/CC[C@H](NC(C)=O)C(=O)Nc1cccn(CC(=O)NCCC(C)C)c1=O [A7, (S,E)-Ethyl 6-acetamido-7-(1-(2-(isopentylamino)-2-oxoethyl)-2-oxo-1,2-dihydropyridin-3-ylamino)-7-oxohept-2-enoate]	3.6	51	105
CCOC(=O)/C=C/CC[C@H](NC(=O)CCC(=O)O)C(=O)Nc1cccn(CC(=O)NCC(CC)CC)c1=O [A30, (S,E)-4-(7-Ethoxy-1-(1-(2-(2-ethylbutylamino)-2-oxoethyl)-2-oxo-1,2-dihydropyridin-3-ylamino)-1,7-dioxohept-5-en-2-ylamino)-4-oxobutanoic acid]	3.26	32.8	90.9
CCOC(=O)/C=C/CC[C@H](NC(C)=O)C(=O)Nc1cccn(CC(=O)NCCC(CC)CC)c1=O [A42, (S,E)-ethyl 6-acetamido-7-(1-(2-(3-ethylpentylamino)-2-oxoethyl)-2-oxo-1,2-dihydropyridin-3-ylamino)-7-oxohept-2-enoate]	7.1	36.7	109
CCOC(=O)/C=C/CC[C@H](NC(=O)CCC(=O)O)C(=O)Nc1cccn(CC(=O)NCCC(C)C)c1=O [A24, (S,E)-4-(7-Ethoxy-1-(1-(2-(isopentylamino)-2-oxoethyl)-2-oxo-1,2-dihydropyridin-3-ylamino)-1,7-dioxohept-5-en-2-ylamino)-4-oxobutanoic acid]	7.5	38.5	133
COC(=O)/C=C/CC[C@H](NC(C)=O)C(=O)Nc1cccn(CC(=O)N2CCCC(C)C2)c1=O (stereo partly drawn) [A64, (6S,E)-Methyl 6-acetamido-7-(1-(2-(3-methylpipendin-1-yl)-2-oxoethyl)-2-oxo-1,2-dihydropyridin-3-ylamino)-7-oxohept-2-enoate]	3	109	120
COC(=O)/C=C/CC[C@H](NC(C)=O)C(=O)Nc1cccn(CC(=O)N2CCC(C(F)(F)F)CC2)c1=O [A65, (S,E)-Methyl 6-acetamido-7-oxo-7-(2-oxo-1-(2-oxo-2-(4-(trifluoromethyl)piperidin-1-yl)ethyl)-1,2-dihydropyridin-3-ylamino)hept-2-enoate]	2.9	37.7	156

The next compounds have a lower IC50 [1] than those just listed; values first:

IC50 [1] [µM]	IC50 (TG6 (transglutaminase 6)) [µM]	IC50 [2] [µM]	SMILES
2.39	54.3	81.1	CCOC(=O)/C=C/CC[C@H](NC(=O)c1cncn1C)C(=O)Nc1cccn(CC(=O)NCCC(C)C)c1=O [A19, (S,E)-Ethyl 7-(1-(2-(isopentylamino)-2-oxoethyl)-2-oxo-1,2-dihydropyridin-3-ylamino)-6-(1-methyl-1H-imidazole-5-carboxamido)-7-oxohept-2-enoate]
0.833	26.2	77.7	CCOC(=O)/C=C/CC[C@H](NC(=O)c1cncn1C)C(=O)Nc1cccn(CC(=O)N[C@H](C(=O)O)[C@H](C)CC)c1=O [A53, (2S,3R)-2-(2-(3-((S,E)-7-Ethoxy-2-(1-methyl-1H-imidazole-5-carboxamido)-7-oxohept-5-enamido)-2-oxopyridin-1(2H)-yl)acetamido)-3-methylpentanoic acid]
0.218	31.5	89	CCC(CC)CNC(=O)Cn1cccc(NC(=O)[C@H](CC/C=C/C(=O)OC)NC(=O)c2cncn2C)c1=O [A63, (S,E)-Methyl 7-(1-(2-(2-ethylbutylamino)-2-oxoethyl)-2-oxo-1,2-dihydropyridin-3-ylamino)-6-(1-methyl-1H-imidazole-5-carboxamido)-7-oxohept-2-enoate]
0.112	11.5	73.2	CC[C@@H](C)[C@H](NC(=O)Cn1cccc(NC(=O)[C@H](CC/C=C/C(=O)OC)NC(=O)c2cncn2C)c1=O)C(=O)O [A60, (2S,3R)-2-(2-(3-((S,E)-7-Methoxy-2-(1-methyl-1H-imidazole-5-carboxamido)-7-oxohept-5-enamido)-2-oxopyridin-1(2H)-yl)acetamido)-3-methylpentanoic acid]
0.079	4.3	63.4	CC[C@@H](C)[C@H](NC(=O)Cn1cccc(NC(=O)[C@H](CC/C=C/C(=O)OC)NC(=O)c2ccccc2)c1=O)C(=O)O [A61, (2S,3R)-2-(2-(3-((S,E)-2-benzamido-7-methoxy-7-oxohept-5-enamido)-2-oxopyridin-1(2H)-yl)acetamido)-3-methylpentanoic acid]
1.96	47	122	CCOC(=O)/C=C/CC[C@H](NC(C)=O)C(=O)Nc1cccn(CC(=O)NCC(CC)CC)c1=O [A62, (S,E)-Ethyl 6-acetamido-7-(1-(2-(2-ethylbutylamino)-2-oxoethyl)-2-oxo-1,2-dihydropyridin-3-ylamino)-7-oxohept-2-enoate]
0.4	83.3	67.4	COC(=O)/C=C/CC[C@H](NC(C)=O)C(=O)Nc1cccn(CC(=O)NCCC(C)C)c1=O [A29, (S,E)-methyl 6-acetamido-7-(1-(2-(isopentylamino)-2-oxoethyl)-2-oxo-1,2-dihydropyridin-3-ylamino)-7-oxohept-2-enoate]
1	21.3	70.7	CCOC(=O)/C=C/CC[C@H](NC(C)=O)C(=O)Nc1cccn(CC(=O)N[C@H](C(=O)OC)[C@H](C)CC)c1=O [A35, (S,E)-ethyl 6-acetamido-7-(1-(2-((2S,3R)-1-methoxy-3-methyl-1-oxopentan-2-ylamino)-2-oxoethyl)-2-oxo-1,2-dihydropyridin-3-ylamino)-7-oxohept-2-enoate]
1.54	66	120	CCOC(=O)/C=C/CC[C@H](NC(=O)c1cncn1C)C(=O)Nc1cccn(CC(=O)NCC(CC)CC)c1=O [A58, (S,E)-Ethyl 7-(1-(2-(2-ethylbutylamino)-2-oxoethyl)-2-oxo-1,2-dihydropyridin-3-ylamino)-6-(1-methyl-1H-imidazole-5-carboxamido)-7-oxohept-2-enoate]
